Converted amounts (≈) assume the structure as drawn.
Tests used:
Assay in all cases: Bacterial growth minimal inhibitory concentration (microdilution, cation-adjusted Mueller-Hinton Broth)
P. aeruginosa ATCC 27853 = type: cell-based, Pseudomonas aeruginosa; conditions: quinolone-sensitive strain; for MIC: Pseudomonas aeruginosa, ATCC27853
How it was run: (§1)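 Broth microdilution in cation-adjusted Mueller-Hinton Broth per CLSI M7-A7; MICs in mg/L. S. aureus A798 is methicillin- and quinolone-resistant, K. pneumoniae T6474 penicillin-, cephalosporin- and quinolone-resistant; E. coli ATCC25922 and P. aeruginosa ATCC 27853 are quinolone-sensitive.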

E. coli ATCC25922 = type: cell-based; conditions: quinolone-sensitive strain; for MIC: Escherichia coli, ATCC25922
How it was run: as §1

K. pneumoniae T6474 = type: cell-based, Klebsiella pneumoniae; conditions: multiply-resistant strain (penicillin-, cephalosporin- and quinolone-resistant); for MIC: Klebsiella pneumoniae, T6474
How it was run: as §1

S. aureus A798 = type: cell-based, Staphylococcus aureus; conditions: multiply-resistant strain (methicillin- and quinolone-resistant); for MIC: Staphylococcus aureus, A798
How it was run: as §1

Structure (SMILES)	MIC (P. aeruginosa ATCC 27853)	MIC (E. coli ATCC25922)	MIC (K. pneumoniae T6474)	MIC (S. aureus A798)	MIC for P. aeruginosa ATCC 27853 (P. aeruginosa ATCC 27853)	MIC for E. coli ATCC25922 (E. coli ATCC25922)	MIC for K. pneumoniae T6474 (K. pneumoniae T6474)	MIC for S. aureus A798 (S. aureus A798)
NC1(COc2cccc(-c3cccc(CNCC[C@H]4CN(c5ccc6c(n5)NC(=O)CO6)C(=O)O4)c3)c2)CC1 [Example 14, 6-[(S)-5-(2-{[3′-(1-amino-cyclopropylmethoxy)-biphenyl-3-ylmethyl]-amino}-ethyl)-2-oxo-oxazolidin-3-yl]-4H-pyrido[3,2-b][1,4]oxazin-3-one]	8 µg/mL (≈ 15.1 µM)	2 µg/mL (≈ 3.78 µM)	2 µg/mL (≈ 3.78 µM)	1 µg/mL (≈ 1.89 µM)	–	–	–	–
NCCOc1cccc(-c2ccnc(CNCC[C@H]3CN(c4ccc5c(n4)NC(=O)CO5)C(=O)O3)c2)n1.O=CO [Example 16, 6-[(S)-5-(2-{[6-(2-amino-ethoxy)-[2,4′]bipyridinyl-2′-ylmethyl]-amino}-ethyl)-2-oxo-oxazolidin-3-yl]-4H-pyrido[3,2-b][1,4]oxazin-3-one formate]	0.5 µg/mL	2 µg/mL	4 µg/mL	0.5 µg/mL	–	–	–	–
CN1CC[C@@H](Oc2cccc(-c3cccc(CNCC[C@H]4CN(c5ccc6c(n5)NC(=O)CO6)C(=O)O4)c3)n2)C1 [Example $120, 6-[(S)-5-(2-{3-[6-((R)-1-methyl-pyrrolidin-3-yloxy)-pyridin-2-yl]-benzylamino}-ethyl)-2-oxo-oxazolidin-3-yl]-4H-pyrido[3,2-b][1,4]oxazin-3-one]	2 µg/mL (≈ 3.67 µM)	1 µg/mL (≈ 1.84 µM)	2 µg/mL (≈ 3.67 µM)	0.5 µg/mL (≈ 0.918 µM)	–	–	–	–
O=C1COc2ccc(N3C[C@H](CCNCc4cccc(-c5cccc(OC6CNC6)n5)c4)OC3=O)nc2N1 [Example $107, 6-[(S)-5-(2-{3-[6-(azetidin-3-yloxy)-pyridin-2-yl]-benzylamino}-ethyl)-2-oxo-oxazolidin-3-yl]-4H-pyrido[3,2-b][1,4]oxazin-3-one]	0.5 µg/mL (≈ 0.968 µM)	0.5 µg/mL (≈ 0.968 µM)	2 µg/mL (≈ 3.87 µM)	1 µg/mL (≈ 1.94 µM)	–	–	–	–
CN1CC[C@H](Oc2cccc(-c3cccc(CNCC[C@H]4CN(c5ccc6c(n5)NC(=O)CO6)C(=O)O4)c3)n2)C1 [Example $121, 6-[(S)-5-(2-{3-[6-((S)-1-methyl-pyrrolidin-3-yloxy)-pyridin-2-yl]-benzylamino}-ethyl)-2-oxo-oxazolidin-3-yl]-4H-pyrido[3,2-b][1,4]oxazin-3-one]	1 µg/mL (≈ 1.84 µM)	0.5 µg/mL (≈ 0.918 µM)	0.5 µg/mL (≈ 0.918 µM)	0.25 µg/mL (≈ 0.459 µM)	–	–	–	–
O=C1COc2ccc(N3C[C@H](CCNCc4cccc(-c5nccc(O[C@@H]6CCNC6)n5)c4)OC3=O)nc2N1 [Example $115, 6-[(S)-2-oxo-5-(2-{3-[4-((R)-pyrrolidin-3-yloxy)-pyrimidin-2-yl]-benzylamino}-ethyl)-oxazolidin-3-yl]-4H-pyrido[3,2-b][1,4]oxazin-3-one]	2 µg/mL (≈ 3.76 µM)	4 µg/mL (≈ 7.52 µM)	16 µg/mL (≈ 30.1 µM)	4 µg/mL (≈ 7.52 µM)	–	–	–	–
NCCOc1cncc(-c2cccc(CNCC[C@H]3CN(c4ccc5c(n4)NC(=O)CO5)C(=O)O3)c2)c1 [Example 11, 6-[(S)-5-(2-{3-[5-(2-amino-ethoxy)-pyridin-3-yl]-benzylamino}-ethyl)-2-oxo-oxazolidin-3-yl]-4H-pyrido[3,2-b][1,4]oxazin-3-one]	1 µg/mL (≈ 1.98 µM)	2 µg/mL (≈ 3.96 µM)	4 µg/mL (≈ 7.93 µM)	2 µg/mL (≈ 3.96 µM)	–	–	–	–
CN(C)CCOc1cnnc(-c2cccc(CNCC[C@H]3CN(c4ccc5c(n4)NC(=O)CO5)C(=O)O3)c2)c1 [Example 10, 6-[(S)-5-(2-{3-[5-(2-dimethylamino-ethoxy)-pyridazin-3-yl]-benzylamino}-ethyl)-2-oxo-oxazolidin-3-yl]-4H-pyrido[3,2-b][1,4]oxazin-3-one]	4 µg/mL (≈ 7.5 µM)	2 µg/mL (≈ 3.75 µM)	4 µg/mL (≈ 7.5 µM)	8 µg/mL (≈ 15 µM)	–	–	–	–
O=C1COc2ccc(N3C[C@H](CCNCc4cccc(-c5cccc(O[C@@H]6CCNC6)n5)c4)OC3=O)nc2N1 [Example $118, 6-[(S)-2-oxo-5-(2-{3-[6-((R)-pyrrolidin-3-yloxy)-pyridin-2-yl]-benzylamino}-ethyl)-oxazolidin-3-yl]-4H-pyrido[3,2-b][1,4]oxazin-3-one]	1 µg/mL (≈ 1.88 µM)	1 µg/mL (≈ 1.88 µM)	2 µg/mL (≈ 3.77 µM)	2 µg/mL (≈ 3.77 µM)	–	–	–	–
NCCCCOc1cccc(-c2cccc(CNCC[C@H]3CN(c4ccc5c(n4)NC(=O)CO5)C(=O)O3)c2)c1 [Example 5, 6-[(S)-5-(2-{[3′-(4-amino-butoxy)-biphenyl-3-ylmethyl]-amino}-ethyl)-2-oxo-oxazolidin-3-yl]-4H-pyrido[3,2-b][1,4]oxazin-3-one]	4 µg/mL (≈ 7.52 µM)	4 µg/mL (≈ 7.52 µM)	4 µg/mL (≈ 7.52 µM)	2 µg/mL (≈ 3.76 µM)	–	–	–	–
O=C1COc2ccc(N3C[C@H](CCNCc4cccc(-c5cccc(OC[C@@H]6CCN6)n5)c4)OC3=O)nc2N1.O=CO [Example $108, 6-[(S)-5-(2-{3-[6-((S)-1-azetidin-2-ylmethoxy)-pyridin-2-yl]-benzylamino}-ethyl)-2-oxo-oxazolidin-3-yl]-4H-pyrido[3,2-b][1,4]oxazin-3-oneformate]	–	–	–	–	0.5 mg/L	1 mg/L	2 mg/L	2 mg/L

Further lines, results first:

MIC (P. aeruginosa ATCC 27853)	MIC (E. coli ATCC25922)	MIC (K. pneumoniae T6474)	MIC (S. aureus A798)	MIC for P. aeruginosa ATCC 27853 (P. aeruginosa ATCC 27853)	MIC for E. coli ATCC25922 (E. coli ATCC25922)	MIC for K. pneumoniae T6474 (K. pneumoniae T6474)	MIC for S. aureus A798 (S. aureus A798)	Structure (SMILES)
1 µg/mL (≈ 1.79 µM)	1 µg/mL (≈ 1.79 µM)	1 µg/mL (≈ 1.79 µM)	0.25 µg/mL (≈ 0.447 µM)	–	–	–	–	CN1CC[C@H](Oc2cccc(-c3cccc(CNCC[C@H]4CN(c5ccc6c(c5)NC(=O)CS6)C(=O)O4)c3)n2)C1 [Example $167, 6-[(S)-5-(2-{3-[6-((S)-1-methyl-pyrrolidin-3-yloxy)-pyridin-2-yl]-benzylamino}-ethyl)-2-oxo-oxazolidin-3-yl]-4H-benzo[1,4]thiazin-3-one]
4 µg/mL	2 µg/mL	4 µg/mL	0.5 µg/mL	–	–	–	–	CC(C)N1CCC(Oc2cccc(-c3cccc(CNCC[C@H]4CN(c5ccc6c(n5)NC(=O)CO6)C(=O)O4)c3)n2)C1 (mixture of isomers) [Example $134, 6-[(S)-5-(2-{3-[6-((RS)-1-isopropyl-pyrrolidin-3-yloxy)-pyridin-2-yl]-benzylamino}-ethyl)-2-oxo-oxazolidin-3-yl]-4H-pyrido[3,2-b][1,4]oxazin-3-one]
2 µg/mL (≈ 3.48 µM)	1 µg/mL (≈ 1.74 µM)	2 µg/mL (≈ 3.48 µM)	0.25 µg/mL (≈ 0.435 µM)	–	–	–	–	COc1cc(O[C@H]2CCN(C)C2)nc(-c2cccc(CNCC[C@H]3CN(c4ccc5c(n4)NC(=O)CO5)C(=O)O3)c2)c1 [Example $136, 6-[(S)-5-(2-{3-[4-methoxy-6-((S)-1-methyl-pyrrolidin-3-yloxy)-pyridin-2-yl]-benzylamino}-ethyl)-2-oxo-oxazolidin-3-yl]-4H-pyrido[3,2-b][1,4]oxazin-3-one]
1 µg/mL (≈ 1.84 µM)	2 µg/mL (≈ 3.67 µM)	4 µg/mL (≈ 7.34 µM)	2 µg/mL (≈ 3.67 µM)	–	–	–	–	O=C1COc2ccc(N3C[C@H](CCNCc4cccc(-c5cccc(OC[C@@H]6CCNC6)n5)c4)OC3=O)nc2N1 [Example $143, 6-[(S)-2-oxo-5-(2-{3-[6-((R)-1-pyrrolidin-3-ylmethoxy)-pyridin-2-yl]-benzylamino}-ethyl)-oxazolidin-3-yl]-4H-pyrido[3,2-b][1,4]oxazin-3-one]
4 µg/mL (≈ 7.51 µM)	2 µg/mL (≈ 3.76 µM)	4 µg/mL (≈ 7.51 µM)	4 µg/mL (≈ 7.51 µM)	–	–	–	–	CN1CC(Oc2cncc(-c3cncc(CNCC[C@H]4CN(c5ccc6c(n5)NC(=O)CO6)C(=O)O4)c3)n2)C1 [Example $190, 6-{(S)-5-[2-({5-[6-(1-methyl-azetidin-3-yloxy)-pyrazin-2-yl]-pyridin-3-ylmethyl}-amino)-ethyl]-2-oxo-oxazolidin-3-yl}-4H-pyrido[3,2-b][1,4]oxazin-3-one]
2 µg/mL (≈ 3.57 µM)	2 µg/mL (≈ 3.57 µM)	2 µg/mL (≈ 3.57 µM)	1 µg/mL (≈ 1.79 µM)	–	–	–	–	CN1CC[C@@H](Oc2cccc(-c3cccc(CNCC[C@H]4CN(c5ccc6c(c5)NC(=O)CS6)C(=O)O4)c3)n2)C1 [Example $168, 6-[(S)-5-(2-{3-[6-((R)-1-methyl-pyrrolidin-3-yloxy)-pyridin-2-yl]-benzylamino}-ethyl)-2-oxo-oxazolidin-3-yl]-4H-benzo[1,4]thiazin-3-one]
0.5 µg/mL (≈ 0.918 µM)	0.5 µg/mL (≈ 0.918 µM)	1 µg/mL (≈ 1.84 µM)	0.25 µg/mL (≈ 0.459 µM)	–	–	–	–	O=C1COc2ccc(N3C[C@H](CCNCc4cccc(-c5cccc(OC[C@H]6CCCN6)n5)c4)OC3=O)nc2N1 [Example $132, 6-[(S)-2-oxo-5-(2-{3-[6-((R)-1-pyrrolidin-2-ylmethoxy)-pyridin-2-yl]-benzylamino}-ethyl)-oxazolidin-3-yl]-4H-pyrido[3,2-b][1,4]oxazin-3-one]
2 µg/mL (≈ 3.57 µM)	1 µg/mL (≈ 1.79 µM)	2 µg/mL (≈ 3.57 µM)	0.25 µg/mL (≈ 0.447 µM)	–	–	–	–	CN1CC[C@@H](Oc2cccc(-c3cccc(CNCC[C@@H]4CN(c5ccc6c(c5)NC(=O)CS6)C(=O)O4)c3)n2)C1 [Example $169, 6-[(R)-5-(2-{3-[6-((R)-1-methyl-pyrrolidin-3-yloxy)-pyridin-2-yl]-benzylamino}-ethyl)-2-oxo-oxazolidin-3-yl]-4H-benzo[1,4]thiazin-3-one]
0.5 µg/mL (≈ 0.942 µM)	1 µg/mL (≈ 1.88 µM)	2 µg/mL (≈ 3.77 µM)	1 µg/mL (≈ 1.88 µM)	–	–	–	–	O=C1COc2ccc(N3C[C@H](CCNCc4cccc(-c5cccc(OC[C@H]6CCN6)n5)c4)OC3=O)nc2N1 [Example $124, 6-[(S)-5-(2-{3-[6-((R)-1-azetidin-2-ylmethoxy)-pyridin-2-yl]-benzylamino}-ethyl)-2-oxo-oxazolidin-3-yl]-4H-pyrido[3,2-b][1,4]oxazin-3-one]
4 µg/mL (≈ 7.34 µM)	1 µg/mL (≈ 1.84 µM)	2 µg/mL (≈ 3.67 µM)	0.5 µg/mL (≈ 0.918 µM)	–	–	–	–	CN1CC[C@@H]1COc1cccc(-c2cccc(CNCC[C@H]3CN(c4ccc5c(n4)NC(=O)CO5)C(=O)O3)c2)n1 [Example $125, 6-[(S)-5-(2-{3-[6-((R)-1-methyl-azetidin-2-ylmethoxy)-pyridin-2-yl]-benzylamino}-ethyl)-2-oxo-oxazolidin-3-yl]-4H-pyrido[3,2-b][1,4]oxazin-3-one]
